Results on two compounds are retold here after PMC2684828 (Analytical chemistry, 2009).

The assay concerns the target T1, Cytochrome P450cam (CYP101) (Pseudomonas putida, UniProt P00183).
T1 sequence (P00183 2-415): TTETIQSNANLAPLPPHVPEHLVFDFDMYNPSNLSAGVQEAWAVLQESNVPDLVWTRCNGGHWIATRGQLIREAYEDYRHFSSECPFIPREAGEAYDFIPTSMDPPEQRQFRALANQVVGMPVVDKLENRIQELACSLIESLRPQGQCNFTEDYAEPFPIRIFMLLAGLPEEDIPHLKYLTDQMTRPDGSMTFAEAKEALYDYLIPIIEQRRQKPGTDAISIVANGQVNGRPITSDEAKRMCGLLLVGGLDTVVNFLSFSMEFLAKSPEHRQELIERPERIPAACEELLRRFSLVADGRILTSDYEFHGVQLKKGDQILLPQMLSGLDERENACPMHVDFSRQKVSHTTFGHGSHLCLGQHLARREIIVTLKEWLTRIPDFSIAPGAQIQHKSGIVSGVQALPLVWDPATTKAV
Description: enzyme/DNA film biosensor. Type of assay: biochemical.

Molecules are shown by their SMILES.

In the case of `O=C(O)Cc1c[nH]cn1` [Imid.4AA, imidazole-4-acetic acid], the affinity corresponds to a Ki of 142 µM.

On to `c1c[nH]cn1` [Imid., imidazole], for which the Ki is 245 µM.

What is called Ki is a dissociation constant, usually derived from enzyme kinetics or from competition with a known ligand.
